Experimental data published in doi:10.1101/2021.10.01.462758v2 (biorxiv, 2021).
Where two headings read alike, the source gives them in different places.

Columns and labels:
[1] = molecular target: T1, D2R; D2Long receptor fused to C-terminal RLuc (BRET assay) (Homo sapiens, UniProt P14416); experiment: cell-based; set-up: species or system HEK293T; conditions: for Emax: HEK-293T, read-out: β-arrestin Emax (%), D2R
[2] = molecular target: T2, D1R; D1 receptor fused to C-terminal RLuc (BRET assay) (Homo sapiens, UniProt P21728); experiment: cell-based; set-up: species or system HEK293T; conditions: HEK-293T, read-out: β-arrestin Emax (%), D1R
[3] = molecular target: T1, D2R; D2Long receptor fused to C-terminal RLuc (BRET assay); experiment: BRET beta-arrestin2 recruitment, HEK293T; format: cell-based
[4] = molecular target: T2, D1R; D1 receptor fused to C-terminal RLuc (BRET assay); experiment: BRET beta-arrestin2 recruitment, HEK293T; format: cell-based
[5] = molecular target: T1, D2R; D2Long receptor fused to C-terminal RLuc (BRET assay); experiment: cell-based; set-up: species or system HEK293T
[6] = molecular target: T2, D1R; D1 receptor fused to C-terminal RLuc (BRET assay); experiment: cell-based; set-up: species or system HEK293T; conditions: HEK-293T, read-out: β-arrestin Emax (%), D1R; remark: listed apart in the source
[7] = molecular target: T2, D1R; D1 receptor fused to C-terminal RLuc (BRET assay); experiment: cell-based; set-up: species or system HEK293T; conditions: HEK-293T, read-out: β-arrestin Emax (%), D1R; remark: listed apart in the source
[8] = molecular target: T1, D2R; D2Long receptor fused to C-terminal RLuc (BRET assay); experiment: cell-based; set-up: species or system HEK293T; remark: listed apart in the source
[9] = molecular target: T2, D1R; D1 receptor fused to C-terminal RLuc (BRET assay); experiment: cell-based; set-up: species or system HEK293T; conditions: HEK-293T, read-out: β-arrestin Emax (%), D1R; remark: listed apart in the source
[10] = molecular target: T1, D2R; D2Long receptor fused to C-terminal RLuc (BRET assay); experiment: cell-based; set-up: species or system HEK293T; conditions: HEK-293T, read-out: β-arrestin Emax (%), D2R
[11] = molecular target: T1, D2R; D2Long receptor fused to C-terminal RLuc (BRET assay); conditions: agonist
[12] = molecular target: T1, D2R; D2Long receptor fused to C-terminal RLuc (BRET assay); experiment: cell-based; set-up: species or system HEK293T; conditions: HEK-293T, read-out: β-arrestin Emax (%), D2R; remark: listed apart in the source
[13] = molecular target: T1, D2R; D2Long receptor fused to C-terminal RLuc (BRET assay); experiment: cell-based; set-up: species or system HEK293T; remark: listed apart in the source

T2 sequence (P21728 whole entry, the tested form may be a part): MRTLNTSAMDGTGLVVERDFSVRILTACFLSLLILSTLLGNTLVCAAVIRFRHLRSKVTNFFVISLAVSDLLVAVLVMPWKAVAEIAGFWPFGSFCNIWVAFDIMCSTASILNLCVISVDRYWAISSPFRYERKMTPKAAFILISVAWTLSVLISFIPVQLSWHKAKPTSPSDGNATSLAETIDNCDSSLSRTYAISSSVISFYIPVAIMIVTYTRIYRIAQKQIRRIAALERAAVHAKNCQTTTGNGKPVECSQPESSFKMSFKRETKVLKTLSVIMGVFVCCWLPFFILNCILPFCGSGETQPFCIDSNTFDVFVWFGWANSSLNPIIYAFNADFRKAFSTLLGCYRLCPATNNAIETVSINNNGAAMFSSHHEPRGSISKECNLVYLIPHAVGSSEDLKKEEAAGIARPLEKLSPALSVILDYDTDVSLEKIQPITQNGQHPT
T1 sequence (P14416 whole entry, the tested form may be a part): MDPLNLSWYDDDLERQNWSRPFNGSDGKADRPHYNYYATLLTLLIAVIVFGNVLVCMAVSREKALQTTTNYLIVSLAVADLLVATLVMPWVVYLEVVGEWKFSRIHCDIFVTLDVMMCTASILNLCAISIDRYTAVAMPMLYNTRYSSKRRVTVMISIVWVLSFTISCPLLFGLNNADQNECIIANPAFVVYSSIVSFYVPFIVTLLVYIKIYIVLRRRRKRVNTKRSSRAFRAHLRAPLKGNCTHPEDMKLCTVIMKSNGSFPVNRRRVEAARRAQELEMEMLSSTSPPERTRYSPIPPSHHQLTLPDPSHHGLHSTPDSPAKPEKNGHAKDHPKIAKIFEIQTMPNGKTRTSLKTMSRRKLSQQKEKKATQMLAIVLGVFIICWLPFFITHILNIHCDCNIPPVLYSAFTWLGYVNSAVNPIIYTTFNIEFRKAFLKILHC

Row | Structure (SMILES) | Emax [1] [%] | EC50 [3] [µM] | EC50 [4] [µM] | also measured
1 | Oc1cc2c(cc1O)[C@H]1c3cc(Br)sc3CN[C@@H]1CC2 (racemic) [1b] | 60.3 ± 2.27 | – | – | Emax [2]: 138 ± 8.41%
2 | CCCc1cc2c(s1)CN[C@@H]1CCc3cc(O)c(O)cc3[C@@H]21 [(-)-A-86929] | 79.7 ± 3.83 | 0.27 | 0.607 | Emax [2]: 95.5 ± 6.88%
3 | Oc1cc2c(cc1O)[C@H](c1cccs1)[C@@H](NCc1ccccc1)CC2 (racemic) [1l] | 8.62 ± 3.15 | – | – | –
4 | Oc1cc2c(cc1O)[C@H]1c3cc(-c4cccc(C(F)(F)F)c4)sc3CN[C@@H]1CC2 [1h] | 73 ± 4.69 | 4.84 | > 10 | –
5 | CCCc1cc2c(s1)CN[C@H]1CCc3cc(O)c(O)cc3[C@H]21 [(+)-A-86929] | 38 ± 4.45 | 2.07 | 2.8 | Emax [2]: 94.1 ± 6.55%
6 | Oc1cc2c(cc1O)[C@H]1c3cc(Br)sc3CN[C@@H]1CC2 [1c] | 70.3 ± 3.41 | – | – | Emax [2]: 137 ± 9.35%
7 | OCCCc1ccc(O)c(O)c1 [3b] | – | – | 0.534 | EC50 [5]: > 10 µM; Emax [6]: 3.5 ± 1.9%
8 | COc1cccc(-c2ccc(O)c(O)c2)c1 [Z4642446630] | – | – | – | EC50 ([4]; agonist mode, beta-arrestin2 pathway, pH […]): 5.48 µM; Emax [7]: 17.1 ± 5.3%
9 | N[C@H]1CCc2cc(O)c(O)cc2[C@@H]1c1cccs1 (racemic) [1m] | 27 ± 1.8 | – | – | Emax [2]: 3.7 ± 1.67%
10 | Oc1cc2c(cc1O)[C@@H]1c3cc(-c4cccc(C(F)(F)F)c4)sc3CN[C@H]1CC2 [1i] | – | > 10 | > 10 | –
11 | CCCc1cc2c(s1)CN[C@@H]1CCc3cc(OC(C)=O)c(OC(C)=O)cc3[C@@H]21 [ABT-431] | 23 ± 2.15 | 3 | 3.2 | Emax [2]: 88.2 ± 3.06%
12 | Oc1cccc(-c2cnc3ccccc3c2)c1O [2i] | – | – | > 10 | EC50 [8]: > 100 µM
13 | CN1Cc2sccc2[C@@H]2c3cc(O)c(O)cc3CC[C@H]21 (relative stereo) [1j] | 73.4 ± 17.8 | 7.48 | > 10 | –
14 | Oc1cc2c(cc1O)[C@@H]1c3cc(Br)sc3CN[C@H]1CC2 [1d] | 50.6 ± 4.02 | 5.62 | 2.63 | Emax [2]: 52.8 ± 9.7%
15 | NS(=O)(=O)c1ccc(-c2cccc(O)c2O)cc1 [2f] | – | – | 0.0514 | Emax [9]: 4.6 ± 1.5%; EC50 [8]: > 100 µM
16 | Nc1cccc(-c2cccc(O)c2O)c1 [2g] | – | – | 0.00733 | Emax [9]: 4 ± 1.6%; EC50 [8]: > 100 µM
17 | Cc1cc(-c2cccc(O)c2O)cs1 [2a] | – | – | 6.9 | Emax [9]: 30.3 ± 5.6%; Emax [10]: 13.9 ± 3.68%
18 | Oc1cccc(-c2cccnc2)c1O [2d] | – | – | 0.053 | Emax [9]: 2.6 ± 1.8%; EC50 [8]: > 100 µM
19 | N#Cc1cccc(-c2cccc(O)c2O)c1 [2e] | – | – | > 10 | EC50 [8]: > 100 µM
20 | NCCc1ccc(O)c(O)c1 [DA] | – | – | – | β-arrestin Emax (%), D2R ([1]; beta-arrestin2 recruitment, % of dopamine, agonist): 90.29±3.23%; D2R beta-arrestin Emax (%) [11]: 90.29±3.23%
21 | Oc1cccc(-c2cncc3ccccc23)c1O [2h] | – | – | 0.689 | Emax [9]: 8.1 ± 2.1%; EC50 [8]: > 100 µM
22 | OCCc1ccc(O)c(O)c1 [3a] | – | 5.26 | 0.229 | Emax [12]: 9.98 ± 2.96%; Emax [6]: 11.5 ± 3.05%
23 | Oc1cccc(-c2cccc(C(F)(F)F)c2)c1O [2b] | – | – | 0.0052 | EC50 [13]: > 10 µM; Emax [9]: 6.13 ± 3.11%
24 | N#Cc1ccc(-c2cccc(O)c2O)cc1 [2c] | – | – | > 10 | EC50 [13]: 0.0317 µM; Emax [10]: 1.61 ± 1.27%
